Laboratory results reported in article PMC12040169 (PLOS Biology, 2025).

Assay: in vitro
Settings: human, hela cells, % viability

| SMILES | viability at 28.5 h, 10 µM [%] |
| --- | --- |
| Cc1cnc(CNC(=O)N2CCN(c3cc(C(F)(F)F)ccn3)CC2)cn1 [CBK162320] | 107 |
| CN1CCN(NC(=O)CN(C)S(=O)(=O)c2cc(Cl)ccc2Cl)CC1 [CBK267366] | 94.2 |
| CN1C(=O)COc2ccccc2CCCC[C@@H]2[C@H]1CCCN2C(=O)c1cc(=O)[nH]c(=O)[nH]1 [CBK292110] | 83.3 |
| CCCn1cnc2sc(C(=O)Nc3ccc(C)cc3C)c(C)c2c1=O [CBK071815] | 84.6 |
| Cc1nnc(SCc2cc(=O)[nH]c(Nc3nc(C)c4cccc(C)c4n3)n2)s1 [CBK266740] | 92.9 |
| Cc1ccc(C)c2c1CCCC2N1CCC(NS(C)(=O)=O)CC1 (stereo not drawn) [CBK304038] | 103 |
| COc1ccccc1CCCNC(=O)c1ccc(=O)n(C)c1 [CBK282636] | 82.7 |
| O=C(CN1CCC(O)(Cn2cnc3ccccc32)CC1)c1ccc(-c2ccccc2)cc1 [CBK286306] | 86.8 |
| CCC(=O)N1CCC2(C/C=C/CC(=O)Nc3cccc(n3)C3CN(CCO3)C(=O)CN(C)C2=O)CC1 (stereo not drawn) [CBK292004] | 105 |
| Cc1ncccc1Oc1ccc(NC(=O)N2CCc3ccccc3CC2)cn1 [CBK018383] | 96.6 |
| CC(=O)Nc1nnc(-c2ccc(Cl)cc2)s1 [CBK287331] | 94.4 |
| C=CCOC(=O)C1=C(C)OC(N)=C(C(=O)OCc2ccccc2)C12C(=O)Nc1ccccc12 (stereo not drawn) [CBK262527] | 90.9 |
| O=C(CCCOc1ccccc1)Nc1cccnc1N1CCNCC1 [CBK028258T] | 97.3 |
| O=C(CN1CCCCC1)Nc1ccc(S(=O)(=O)N2CCOCC2)cc1 [CBK265577] | 90.2 |
| Cc1[nH]c(=O)c(C(=O)Nc2ccc(-n3ccc(C(N)=O)n3)cc2)cc1-c1ccccc1 [CBK291194] | 109 |
| CC(CN(C)C(=O)c1cn[nH]c1C1CCNC1)Oc1ccc(Cl)c(Cl)c1 (stereo not drawn) [CBK304786] | 91.1 |

| SMILES | viability at 28.5 h, 10 µM [%] |
| --- | --- |
| Cn1c(SCC(=O)c2ccc(F)cc2)ncc(C(=O)Nc2ccccc2)c1=O [CBK287672] | 111 |
| Cc1c(Cl)cccc1NC(=S)/N=C(\N)Nc1nc(C)c2ccccc2n1 [CBK268866] | 86.9 |
| CN1CCN(C(=O)c2cc(C(C)(C)C)nn2Cc2ccc(Cl)cc2Cl)CC1 [CBK107285] | 109 |
| O=C(NC[C@H]1O[C@@H](CC(=O)N2CCN(c3ccc(F)cc3)CC2)[C@H](O)[C@@H]1O)C1CC1 [CBK288921] | 92.7 |
| CCN1C(=O)CC2(C1=O)C(=O)N(CCCOc1ccccc1)c1ccc(OC)cc12 (stereo not drawn) [CBK075585] | 98 |
| Cc1cc(NC(=O)c2ccco2)nc2c1c(=O)oc1ccccc12 [CBK291124] | 110 |
| CCc1nc2ccc(C(=O)N3CCCC(C(N)=O)C3)cn2c1N(CC)CCN(C)C (stereo not drawn) [CBK146185] | 98.8 |
| Cc1ccc(C2=CCN(CC(=O)N3CCCCC3C)CC2)o1 (stereo not drawn) [CBK283556] | 86.8 |
| CN1CCN(C(=O)c2ccsc2NS(=O)(=O)c2ccc(Oc3ccccc3)cc2)CC1 [CBK042277] | 87 |
| COCCn1c(SCc2cc(=O)oc3cc(C)ccc23)nnc1-c1ccc(Cl)cc1 [CBK297517] | 87.8 |
| O=C(CC(CN1CCN(c2cccc(Cl)c2)CC1)C(=O)O)NCc1ccccc1 (stereo not drawn) [CBK286787] | 100 |
| CN(C)C(=S)Oc1ccc2[nH]c3c(c2c1)CCNC31CCN(CCOc2ccccc2)C1 (stereo not drawn) [CBK105748] | 74.8 |
| COc1ccc(Cn2nc(NC(=O)c3cnc4ccccc4n3)c3ccccc32)cc1 [CBK048343] | 93 |
| CCc1ccc2c(c1)C(CCNC(=O)c1ncoc1C(F)(F)F)C(=O)N2 (stereo not drawn) [CBK304725] | 99.4 |
| Cc1nn2c(-c3ccc(NC(=O)c4cccs4)cc3)nnc2c2ccccc12 [CBK267134] | 89.6 |
| COc1cc2c(cc1OC)C1(CCN(C(=O)Nc3ccc(F)cc3F)CC1)NC(=O)C2 [CBK047264] | 84.8 |

Same assay, conditions: human, hela cells, % viability, bulk resorufin, single well

| SMILES | viability at 28.5 h, 10 µM [%] |
| --- | --- |
| O=C1NC(=S)N(c2ccccc2)C(=O)/C1=C\c1ccc(OCc2ccccc2)c(C(=O)O)c1 [CBK264265] | 99.1 |
